# Assay results taken from patent US20090233957A1, “(-)-BELOXEPIN AND METHODS FOR ITS SYNTHESIS AND USE” (priority 2008, published 2009).
# How the values were obtained:
# [1] = test system: rat 50° C. hot plate model; assay: rat 50° C. hot plate assay; format: in vivo
# Method: Protocol. Rats were treated with vehicle, 30 mg/kg IP of (−)-beloxepin, or 30 mg/kg IP of (+)-beloxepin and then were placed on a hot plate (50° C.) 30, 60, or 120 minutes after administration of the vehicle or beloxepin enantiomer. Rats treated with 3 mg/kg SC of morphine and tested 30 min post-treatment were used as a positive control in these experiments.
# human recombinant CYP2D6 = target: T1, human recombinant CYP2D6 (Homo sapiens, UniProt P10635); assay: CYP2D6 inhibition, MAMC substrate; format: in vitro ADME; details: microsomes with human recombinant CYP2D6; read-out: CYP2D6 Isoenzyme IC50
# T1 construct: purchased BD Bioscience
# Method: Protocol. […] The source of the enzyme was microsomes containing human recombinant CYP2D6 obtained from BD Bioscience. Conversion of MAMC to 7-hydroxy-4-(aminomethyl)coumarin was measured using a PerkinElmer Fusion with a 390 nm excitation filter and a 460 nm emission filter.
# [2] = target: NET (rat hypothalamus synaptosomes) (Rattus norvegicus, UniProt Q63380); assay: NE uptake inhibition assay, [3H]norepinephrine into synaptosomes; format: biochemical; details: 20 min 37° C., read-out: NET IC50 (norepinephrine reuptake inhibition)
# [3] = target: T2, cloned human 5HT2A receptor (Homo sapiens, UniProt P28223); assay: 5HT2A functional assay, intracellular Ca2+ in HEK-293 cells; format: cell-based
# T2 construct: expressed in transfected cells; host or cells: HEK-293 cells
# Method: (§1) Agonist effects at the 5HT2A receptor were assessed by incubation at 22° C. of a series of concentrations of test compound with intact HEK-293 cells heterologously expressing the cloned human 5HT2A receptor and measuring intracellular [Ca^2+] by fluorimetry according to the method of Jerman et al., 2001, Eur. J. Pharmacol. 414:23-30). Antagonist effects were assessed by the ability of a series of concentrations of test compound to block the increase in intracellular [Ca^2+] that occurred in the presence of 3.0 nM serotonin under the same conditions. EC50 and IC50 values were determined using standard methods.
# [4] = test system: rat hindpaw incision model; assay: rat hindpaw incisional pain model, tactile allodynia; format: in vivo; details: 30 mg/kg IP, 24 hours post-surgery
# Method: Protocol. A time course experiment was also performed with (−)-beloxepin in the hindpaw incision model. At 24 hours post-surgery, rats received vehicle or (−)-beloxepin (30 mg/kg IP). Rats were tested for tactile allodynia at 30, 60, 120 and 240 minutes after administration of (−)-beloxepin.
# Protocol. Another time course experiment was performed with (+)-beloxepin in the hindpaw incision model. At 24 hours post-surgery, rats received vehicle or (+)-beloxepin (30 mg/kg IP). Rats were tested for tactile allodynia at 30, 60, 120 and 240 minutes after administration of (+)-beloxepin.
# [5] = target: T3, cloned human 5HT2C receptor (Homo sapiens, UniProt P28335); assay: 5HT2C functional assay, intracellular Ca2+ in CHO cells; format: cell-based
# T3 construct: expressed in transfected cells; host or cells: CHO cells
# T3 sequence (P28335 33-458): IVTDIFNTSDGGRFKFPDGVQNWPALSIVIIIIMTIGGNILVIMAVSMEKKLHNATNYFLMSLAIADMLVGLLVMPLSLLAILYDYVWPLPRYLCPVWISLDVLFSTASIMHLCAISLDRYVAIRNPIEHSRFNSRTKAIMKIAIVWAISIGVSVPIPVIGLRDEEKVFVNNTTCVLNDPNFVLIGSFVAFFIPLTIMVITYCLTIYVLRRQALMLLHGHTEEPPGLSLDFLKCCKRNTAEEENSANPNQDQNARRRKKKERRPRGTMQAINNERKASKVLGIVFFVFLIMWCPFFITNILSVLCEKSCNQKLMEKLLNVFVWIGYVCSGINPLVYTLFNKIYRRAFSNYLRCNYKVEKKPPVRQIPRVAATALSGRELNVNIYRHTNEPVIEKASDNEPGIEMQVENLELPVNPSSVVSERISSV
# Method: as §1, with “5HT2C” for “5HT2A”, “CHO” for “HEK-293”, “414:23-30.” for “414:23-30).”
# [6] = target: T2, cloned human 5HT2A receptor; assay: 5HT2A receptor binding assay, [3H]ketanserin; details: HEK-293 membranes
# Method: For the 5HT2A receptor binding assay, [^3H]ketanserin (0.5 nM) was incubated for 60 min at 22° C. with membranes prepared from HEK-293 cells heterologously expressing the cloned human 5-HT2A receptor according to the method of Bonhaus et al., 1995, Brit. J. Pharmacol. 115:622-628. Various concentrations of test compound were added and bound radioactivity was determined by scintillation counting. Non-specific binding was determined in the presence of 1.0 μM unlabeled ketanserin. The Ki value for the test compound was determined using standard methods.
# [7] = target: T4, cloned human 5HT2B receptor (Homo sapiens, UniProt P41595); assay: 5HT2B functional assay, intracellular Ca2+ in CHO cells; format: cell-based
# T4 construct: expressed in transfected cells; host or cells: CHO cells
# Method: as §1, with “5HT2B” for “5HT2A”, “CHO” for “HEK-293”, “Porter” for “Jerman”, “1991, Brit.” for “2001, Eur.”, “128:13-20.” for “414:23-30).”, “0.3” for “3.0”
# [8] = target: T4, cloned human 5HT2B receptor; assay: 5HT2B receptor binding assay, [125I]DOI; details: CHO membranes
# Method: For the 5HT2B receptor binding assay, [^125I](±)[…] (DOI) (0.2 nM) was incubated for 15 min at 37° C. with membranes prepared from Chinese hamster ovary cells heterologously expressing the cloned human 5HT2B receptor according to the method of Choi et al., 1994, FEBS Lett 352:393-399. Various concentrations of test compound were added and bound radioactivity was determined by scintillation counting. Non-specific binding was determined in the presence of 1.0 μM unlabeled DOI. The Ki value for the test compound was determined using standard methods.
# [9] = antagonist mode, vs 3.0 nM serotonin
# T4 sequence (P41595 whole entry): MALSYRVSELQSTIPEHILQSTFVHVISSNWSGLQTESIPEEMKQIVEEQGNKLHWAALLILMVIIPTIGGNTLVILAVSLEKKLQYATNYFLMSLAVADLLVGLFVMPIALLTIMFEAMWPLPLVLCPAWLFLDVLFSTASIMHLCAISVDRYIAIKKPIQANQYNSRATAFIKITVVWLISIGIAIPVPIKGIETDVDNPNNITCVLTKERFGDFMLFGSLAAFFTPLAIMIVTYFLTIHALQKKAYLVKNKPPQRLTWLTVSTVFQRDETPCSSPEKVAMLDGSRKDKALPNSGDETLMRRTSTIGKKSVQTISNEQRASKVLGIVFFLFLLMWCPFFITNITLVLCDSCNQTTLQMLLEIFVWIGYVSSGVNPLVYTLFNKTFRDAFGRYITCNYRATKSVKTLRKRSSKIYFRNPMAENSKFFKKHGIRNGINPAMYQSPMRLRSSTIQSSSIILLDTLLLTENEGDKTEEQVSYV
# T2 sequence (P28223 whole entry): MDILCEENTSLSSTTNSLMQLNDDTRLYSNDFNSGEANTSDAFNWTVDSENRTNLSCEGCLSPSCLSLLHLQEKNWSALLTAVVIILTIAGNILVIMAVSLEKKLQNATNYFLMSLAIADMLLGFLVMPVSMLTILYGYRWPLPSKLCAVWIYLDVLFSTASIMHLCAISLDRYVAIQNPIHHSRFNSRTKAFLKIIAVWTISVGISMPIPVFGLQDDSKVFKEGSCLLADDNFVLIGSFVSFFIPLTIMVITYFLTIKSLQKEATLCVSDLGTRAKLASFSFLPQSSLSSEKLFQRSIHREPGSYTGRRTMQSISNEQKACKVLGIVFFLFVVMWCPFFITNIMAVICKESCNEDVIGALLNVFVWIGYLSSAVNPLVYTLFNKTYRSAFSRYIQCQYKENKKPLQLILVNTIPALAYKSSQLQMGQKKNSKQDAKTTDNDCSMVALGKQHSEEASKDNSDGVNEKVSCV
# NET (rat hypothalamus synaptosomes), sequence (Q63380 1-617): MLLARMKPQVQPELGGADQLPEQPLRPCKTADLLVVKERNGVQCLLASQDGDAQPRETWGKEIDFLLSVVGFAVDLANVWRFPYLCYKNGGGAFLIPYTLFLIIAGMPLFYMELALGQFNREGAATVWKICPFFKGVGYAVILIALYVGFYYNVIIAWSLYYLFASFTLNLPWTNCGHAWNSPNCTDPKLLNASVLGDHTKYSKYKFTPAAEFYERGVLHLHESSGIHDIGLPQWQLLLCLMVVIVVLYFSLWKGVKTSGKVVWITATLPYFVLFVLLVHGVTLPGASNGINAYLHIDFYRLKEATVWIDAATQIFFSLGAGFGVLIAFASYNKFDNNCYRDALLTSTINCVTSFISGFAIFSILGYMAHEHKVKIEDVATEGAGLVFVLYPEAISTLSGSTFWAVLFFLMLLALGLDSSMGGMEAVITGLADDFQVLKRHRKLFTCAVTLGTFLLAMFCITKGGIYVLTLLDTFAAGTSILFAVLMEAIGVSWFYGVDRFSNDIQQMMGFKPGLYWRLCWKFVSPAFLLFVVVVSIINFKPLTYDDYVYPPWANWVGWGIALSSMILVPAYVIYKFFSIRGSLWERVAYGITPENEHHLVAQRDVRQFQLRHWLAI
# T1 sequence (P10635 whole entry): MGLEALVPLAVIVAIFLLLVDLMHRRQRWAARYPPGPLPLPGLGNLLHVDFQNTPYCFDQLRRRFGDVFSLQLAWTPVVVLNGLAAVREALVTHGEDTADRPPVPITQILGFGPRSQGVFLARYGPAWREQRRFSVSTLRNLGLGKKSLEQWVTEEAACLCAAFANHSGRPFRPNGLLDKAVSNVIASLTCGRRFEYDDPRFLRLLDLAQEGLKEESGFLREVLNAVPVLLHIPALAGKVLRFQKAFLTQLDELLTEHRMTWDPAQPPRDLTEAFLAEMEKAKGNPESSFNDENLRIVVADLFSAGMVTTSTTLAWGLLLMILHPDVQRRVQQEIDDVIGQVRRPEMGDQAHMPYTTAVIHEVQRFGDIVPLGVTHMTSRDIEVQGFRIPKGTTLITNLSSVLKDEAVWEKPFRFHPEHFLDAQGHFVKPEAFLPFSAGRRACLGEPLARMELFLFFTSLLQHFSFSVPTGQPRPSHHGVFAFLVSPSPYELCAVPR
compound,measurement,setting,value
"Cc1cccc2c1Oc1ccccc1C1(O)CCN(C)CC21 (single isomer, unassigned; (+)) [(+)-beloxepin]",antinociceptive activity,"[1]; 30 mg/kg IP, 30, 60, 120 min",no antinociception was observed
same,% MPE values (range),"[1]; 30 mg/kg IP, 30, 60 or 120 min",10-17%
same,IC50,human recombinant CYP2D6,236 nM
same,IC50,[2],1200 nM
same,5HT2A functional activity type,[3],antagonist
same,IC50,[3]; [9],1600 nM
same,maximum hindpaw withdrawal threshold,[4]; 30 minute time point,~28 grams
same,antiallodynic effect,"[4]; tested 30, 60, 120, 240 min",significant antiallodynic effect at the 30 and 60 minute time points
same,5HT2C functional activity type,[5],antagonist
same,IC50,[5]; [9],7200 nM
same,Ki,[6],97 nM
same,5HT2B functional activity type,[7],antagonist
same,IC50,"[7]; antagonist mode, vs 0.3 nM serotonin",690 nM
same,Ki,[8],170 nM
